Measurements from patent US9061984B2 (University of Louisville Research Foundation, Inc., priority 2008, dated 2015).
pIC50: −log10 of the molar value. Converted amounts (≈) assume the structure as drawn. “And” between values parts separate entries of the source, which are not always exact repeats. Equal values may be shown once. Read-outs that look alike come from different tables or passages of the source.

Experiments:
[1] = system: Trypanosoma cruzi (Tulahuen C4); test: In vitro anti-T. cruzi activity (β-galactosidase CPRG colorimetric assay in VERO monolayer); format: cell-based; settings: for inhibition at 10 µg/mL / IC50 / pIC50: Trypanosoma cruzi, TULAHUEN, Vero; for inhibition at 10 µg/mL: 120 h, read-out: T. cruzi Inhib. (%); for inhibition at 10 µg/mL / T. cruzi Inhib. (%): 10 μg/mL of each compound, 120 hours; for IC50 / IC50 - T. cruzi: Table 2; for IC50: read-out: IC50 - T. cruzi; for pIC50: Table 3, read-out: IC50 T. cruzi
[2] = system: peritoneal macrophages; test: Toxicity to peritoneal macrophages (Trypan Blue count); format: cell-based, BALB/C mouse; settings: Mus musculus, Peritoneal macrophage, 48 h; Table 7; read-out: IC50 Macrophage
[3] = system: L. amazonensis
[4] = system: axenic amastigotes of L. amazonensis (strain MHOM/BR/76/LTB-012); test: microbe, parasite or virus in culture; settings: Leishmania amazonensis, 72 h, read-out: IC50 L. amazonensis
[5] = Cytotoxicity on VERO cells (MTT), anti-T. cruzi study; settings: African green monkey, VERO cells, IC50 - VERO Cytotoxicity, Table 2
[6] = system: VERO cells; test: as above; settings: for pIC50: Chlorocebus sabaeus, Vero, read-out: IC50 VERO, Table 3; for IC50 - VERO Cytotoxicity: Table 2
[7] = system: L. amazonensis Lma CL1; test: Activity against macrophages infected with Leishmania amastigotes; settings: Leishmania amazonensis, Macrophage
Method: (§3) A cloned line of Leishmania amazonensis(strain MHOM/BR/76/LTB-012) was used in all experiments. Axenically grown amastigote forms of L. amazonensis were maintained by weekly subpassages in MAA/20 medium (Sereno and Lemesre, Antimicrobial Agents and Chemotherapy 41, 972-976 (1997)) at 32±1° C. in 25 cm^2 tissue culture flasks. L. peruviana (strain MHOM/PE/LCA08) and L. braziliensis (strainMHOM/PE/PER006) were maintained in the promastigote stage in a biphasic medium (blood agar with 0.89% NaCl, pH 7.4) at 24° C., with sub-passage every 3 to 4 days. Promastigotes (5×10^6 parasites) were then transferred to 25 cm2 tissue culture flasks containing 5 ml of M199 medium supplemented with 10% foetal bovine serum (FBS), pH 7.4. After 4 days, exponential phase promastigotes were centrifuged for 10 minutes at 1500 g and 4° C. The supernatant was discarded and replaced by fresh M199 medium supplemented with 20% FBS, pH 5.5. Axenic amastigotes transformation was then induced by increasing the temperature to 34° C. and incubating for 96 h (Teixeira et al., Parasitology Research 88, 963-968 (2002)).
(§4) Extracted cells were immediately deposited on sterile 4×4 mm cover glasses and placed in each well of a 96-well plate. Plates were incubated for 24 h at 37° C., 5% CO2 to allow cell adhesion (Castillo et al, Journal of Ethnopharmacology 112, 410-414 (2007)). Pre-warmed complete M199 medium was used twice to remove non-adherent cells. A neutral red method (Fautz et al., Mutation Research 253, 173-179 (1991)) was employed to determine cell concentration. Approximately 7×10^4 viable cells were deposited in each well for adhesion.
(§5) Infection of macrophages by amastigotes was determined as follows. […] Twelve hours after infection, a solution of the compounds to be tested was added to the cultures at various concentrations and maintained at 37° C. in 5% CO2 for a further forty-eight hours more. The plates were fixed with methanol and stained with 10% Giemsa stain. The percentage of infected macrophages was determined microscopically at 100 times magnification. The number of intracellular amastigotes was determined in 300 cells. Following Delorenzi et al. Antimicrobial Agents and Chemotherapy, 45, 1349-1354 (2001)) the percentage of infection rate (% IR) of each culture was calculated as follows: % IR=100−(infection rate of the treated culture/infection rate of the untreated culture)×100.
(§6) All experiments were performed in triplicate. ANOVA was used to test for statistical significance of differences (Epi-Info, Statview student program). The total parasite burden was calculated as a mean number of amastigotes per cells multiplied by the number of infected macrophages.

[8] = system: L. braziliensis PER006; test: as above; settings: Leishmania braziliensis, Macrophage, 48 h, read-out: IC50 L. braziliensis PER006
Method: as §3, §4, §5, §6

[9] = system: L. peruviana LCA08; test: as above; settings: Leishmania peruviana, Macrophage, 48 h, read-out: IC50 L. peruviana LCA08
[10] = system: 3T3 cells; test: Cell growth inhibition bioassay (sulforhodamine B); format: cell-based, mouse; settings: Mus musculus, NIH3T3; 48 h, SRB; read-out: GI50 in indicated cell line: 3T3
How it was run: (§1)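 Cells were exposed to compound alongside matched solvent controls, then stained with sulforhodamine B. Percent growth inhibition was calculated from dye absorbance against the control.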

[11] = system: DU145 cells; test: Cell growth inhibition bioassay (sulforhodamine B); format: cell-based, human; settings: Homo sapiens, DU-145; 48 h, SRB; read-out: GI50 in indicated cell line: DU145
How it was run: (§2)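 Cytotoxicity is read by sulforhodamine B colorimetry following the Skehan protocol; values are growth inhibition relative to solvent-only wells.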

[12] = system: H460 cells; test: Cell growth inhibition bioassay (sulforhodamine B); format: cell-based, human; settings: Homo sapiens, NCI-H460; 48 h, SRB; read-out: GI50 in indicated cell line: H460
How it was run: as §1

[13] = system: HT-29 cells; test: Cell growth inhibition bioassay (sulforhodamine B); format: cell-based, human; settings: Homo sapiens, HT-29; 48 h, SRB; read-out: GI50 in indicated cell line: HT-29
How it was run: as §1

[14] = system: K562 cells; test: Cell growth inhibition bioassay (sulforhodamine B); format: cell-based, human; settings: Homo sapiens, K562; 48 h, SRB; read-out: GI50 in indicated cell line: K562
How it was run: as §1

[15] = system: M-14 cells; test: Cell growth inhibition bioassay (sulforhodamine B); format: cell-based, human; settings: Homo sapiens, M14; 48 h, SRB; read-out: GI50 in indicated cell line: M-14
How it was run: as §1

[16] = system: MCF-7 cells; test: Cell growth inhibition bioassay (sulforhodamine B); format: cell-based, human; settings: Homo sapiens, MCF7; 48 h, SRB; read-out: GI50 in indicated cell line: MCF-7
How it was run: as §2

[17] = system: PC3 cells; test: Cell growth inhibition bioassay (sulforhodamine B); format: cell-based; settings: Homo sapiens, PC-3; 48 h, SRB; read-out: GI50 in indicated cell line: PC3
Method: The cytotoxicity of compounds was assayed as follows. […] Appropriate solvent controls were tested for comparison. The percent inhibition of cell growth relative to the control was evaluated colorimetrically using a sulforhodamine B dye by comparison to the control. The calorimetric procedure followed that published in Skehan et al., J. Nat. Cancer Inst., […], pp. 1107-1112 (1990) and Boyd & Paull, Drug Dev. Res., Vol. 34, pp. 91-109 (1995). […] The cell lines are: 3T3 cells are BALB/3T3 clone A31 embryonic mouse fibroblast cells; H460 cells are human large cell lung cancer cells; DU145 cells are human prostate carcinoma cells; MCF-7 cells are human breast adenocarcinoma cells; M-14 cells are human melanoma cells; HT-29 cells are human colon adenocarcinoma cells; PC3 cells are human prostate adenocarcinoma cells; K562 cells are human chronic myelogenous leukemia cells; and VERO cells are African Green Monkey kidney epithelial cells.

[18] = 48 h, read-out: IC50 L. amazonensis Lma CL1

| Structure (SMILES) | inhibition at 10 µg/mL [1] [%] | IC50 [1] [µg/mL] | pIC50 [1] | pIC50 [2] | pIC50 [4] | IC50 [5] [µg/mL] | pIC50 [6] | pIC50 [7, 18] | pIC50 [8] | pIC50 [9] | GI50 [10] [µM] | GI50 [11] [µM] | GI50 [12] [µM] | GI50 [13] [µM] | GI50 [14] [µM] | GI50 [15] [µM] | GI50 [16] [µM] | GI50 [17] [µM] | T. cruzi Inhib. (%) [1] | IC50 - T. cruzi [1] [µg/mL] | other results |
| --- | --- | --- | --- | --- | --- | --- | --- | --- | --- | --- | --- | --- | --- | --- | --- | --- | --- | --- | --- | --- | --- |
| C=CCOc1cc(OC)c(C(=O)/C=C/c2ccccn2)c(OCC=C)c1 [Compound I-27, (2E)-1-[2-Methoxy-4,6-bis(2-propenyloxy)phenyl]-3-(2-pyridinyl)-2-propen-1-one] | 77.2 | 0.67 | 5.72 | 4.90 | 5.96 | 1 (≈ 2.85 µM) | 5.55 | 6.05 | 5.85 | 5.40 |  |  |  |  |  |  |  |  |  |  | Reduction of parasite burden (column After 7 weeks, analyzed after 6 weeks treatment) ([3]; 5 mg/kg/day intralesional, after 6 weeks treatment (footnote d)): 25^d %; Lesion diameter ([3]; compounds 5 mg/kg/day, Glucantime 33 mg/kg/day, intralesional): 4.1 mm; Reduction of parasite burden After 4 weeks ([3]; compounds 5 mg/kg/day, Glucantime 33 mg/kg/day, intralesional, after 4 weeks): −4%; pIC50 ([7]; read-out: bioactivities (IC50) in macrophage-infected model): 5.40 to 6.05 |
| COc1cc(O)cc(O)c1C(=O)/C=C/c1ccc2c(c1)OCO2 [Compound I-06, (2E)-3-(1,3-Benzodioxol-5-yl)-1-(2,4-dihydroxy-6-methoxyphenyl)-2-propen-1-one] |  | 2.97 | 5.03 | 3.80 | 5.39 | 8 (≈ 25.5 µM) | 4.59 | 4.78 | 5.07 | 4.71 | 5.1 | 12.4 | 15.6 | 20.7 | 16.2 | 22.6 | 20.4 | 18.5 | 49.61% and 69.78% |  |  |
| C=CCOc1cc(OC)c(C(=O)/C=C/c2ccc(OC)cc2)c(OCC=C)c1 [Compound I-10, (2E)-1-[2-Methoxy-4,6-bis(2-propenyloxy)phenyl]-3-(4-methoxyphenyl)-2-propen-1-one] | 63.5 | 7.28 | 4.67 | 4.73 | 5.26 | 48 (≈ 126 µM) | 4.00 |  |  |  | 41 | 21 | 20 | 28.4 | 16.6 | 27.6 | 19.5 | 18.1 | 62.86% | 8.14 (≈ 21.4 µM) | IC50 - VERO Cytotoxicity [6]: 38.00 µg/mL (≈ 99.9 µM) |
| COc1cc(O)c(C(=O)/C=C/c2ccc3c(c2)OCO3)c(OC)c1 [Compound I-02, (2E)-3-(1,3-Benzodioxol-5-yl)-1-(2-hydroxy-4,6-dimethoxyphenyl)-2-propen-1-one] | 22.8 |  | < 4.60 |  | < 3.52 |  |  |  |  |  | 39 | > 190 | > 190 | > 190 | 18.9 | > 190 | 140 | 118 | 11.77% |  |  |
| C=CCOc1cc(OC)c(C(=O)/C=C/c2ccc3c(c2)OCO3)c(OCC=C)c1 [Compound I-19, (2E)-3-(1,3-Benzodioxol-5-yl)-1-[2-methoxy-4,6-bis(2-propenyloxy)phenyl]-2-propen-1-one] | 74.1 | 7.33 | 4.87 |  | 5.18 | 49 (≈ 124 µM) | 4.13 |  |  |  | 31.7 | 17.5 | 14.5 | 24.1 | 12.2 | 17.2 | 10.9 | 9.6 | 58.82% | 5.35 (≈ 13.6 µM) | IC50 - VERO Cytotoxicity [6]: 29.00 µg/mL (≈ 73.5 µM) |
